Test results published in the supplement of paper PMC10307832.

Experiments:
Experiment in all cases: relative viability (nuclei count vs DMSO), 5 days (fraction); higher = more cells survive
Selisistat + Trametinib = compound: C1CC(C2=C(C1)C3=C(N2)C=CC(=C3)Cl)C(=O)N [Selisistat] + CC(=O)Nc1cccc(-n2c(=O)n(C3CC3)c(=O)c3c(Nc4ccc(I)cc4F)n(C)c(=O)c(C)c32)c1 [Trametinib] (partner 0.02 µM)
Method in brief: (§1)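 Each reported value is a median over duplicate plates. It expresses relative viability: treated-well nuclei count divided by vehicle-well nuclei count. Lung cancer cell lines in 1536-well plates were dosed by pin tool a day after seeding, alone with one drug or with a fixed anchor-drug dose plus five library-drug doses (not always all listed) in √10 steps, and nuclei were counted after 5 days.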

Selisistat + Phenformin = compound: C1CC(C2=C(C1)C3=C(N2)C=CC(=C3)Cl)C(=O)N [Selisistat] + N=C(N)NC(=N)NCCc1ccccc1 [Phenformin] (partner 250 µM)
Method in brief: as §1

Selisistat + Decitabine = compound: C1CC(C2=C(C1)C3=C(N2)C=CC(=C3)Cl)C(=O)N [Selisistat] + Nc1ncn([C@H]2C[C@H](O)[C@@H](CO)O2)c(=O)n1 [Decitabine] (partner 2 µM)
Method in brief: as §1

Serdemetan + Navitoclax = compound: c1ccc2c(CCNc3ccc(Nc4ccncc4)cc3)c[nH]c2c1 [Serdemetan] + CC1(C)CCC(c2ccc(Cl)cc2)=C(CN2CCN(c3ccc(C(=O)NS(=O)(=O)c4ccc(N[C@H](CCN5CCOCC5)CSc5ccccc5)c(S(=O)(=O)C(F)(F)F)c4)cc3)CC2)C1 [Navitoclax] (partner 0.5 µM)
Method in brief: as §1

Cell Line | relative viability (Selisistat + Trametinib; first compound 0.4 µM) | relative viability (Selisistat + Trametinib; first compound 1.265 µM) | relative viability (Selisistat + Trametinib; first compound 4 µM) | relative viability (Selisistat + Trametinib; first compound 12.65 µM) | relative viability (Selisistat + Trametinib; first compound 40 µM) | relative viability (Selisistat + Phenformin; first compound 0.4 µM) | relative viability (Selisistat + Phenformin; first compound 1.265 µM) | relative viability (Selisistat + Phenformin; first compound 4 µM) | relative viability (Selisistat + Phenformin; first compound 12.65 µM) | relative viability (Selisistat + Phenformin; first compound 40 µM) | relative viability (Selisistat + Decitabine; first compound 0.4 µM) | relative viability (Selisistat + Decitabine; first compound 1.265 µM) | relative viability (Selisistat + Decitabine; first compound 4 µM) | relative viability (Selisistat + Decitabine; first compound 12.65 µM) | relative viability (Selisistat + Decitabine; first compound 40 µM) | relative viability (Serdemetan + Navitoclax; first compound 0.04 µM) | relative viability (Serdemetan + Navitoclax; first compound 0.1265 µM) | relative viability (Serdemetan + Navitoclax; first compound 1.265 µM) | relative viability (Serdemetan + Navitoclax; first compound 4 µM) | relative viability (Serdemetan + Navitoclax; first compound 0.4 µM)
HCC-827 | 0.529 | 0.575 | 0.546 | 0.572 | 0.559 | 0.448 | 0.399 | 0.428 | 0.395 | 0.432 | 0.313 | 0.375 | 0.31 | 0.321 | 0.291 | 1.02 | 0.941 | 0.787 | 0.753 | 
SK-LU-1 | 0.598 | 0.503 | 0.546 | 0.51 | 0.444 | 0.504 | 0.528 | 0.465 | 0.542 | 0.625 | 0.716 | 0.675 | 0.676 | 0.604 | 0.679 | 0.809 | 0.971 | 0.705 | 0.639 | 0.853
NCI-H1975 | 0.371 | 0.358 | 0.262 | 0.329 | 0.33 | 0.419 | 0.422 | 0.366 | 0.41 | 0.382 | 0.396 | 0.423 | 0.346 | 0.373 | 0.365 | 1.01 | 0.998 | 1.05 | 1.24 | 1.2
NCI-H1651 | 0.855 | 0.871 | 0.799 | 0.842 | 0.817 | 0.381 | 0.293 | 0.274 | 0.307 | 0.284 | 0.673 | 0.699 | 0.484 | 0.58 | 0.624 | 0.826 | 0.808 | 0.256 | 0.226 | 0.557
NCI-H441 | 0.455 | 0.432 | 0.363 | 0.398 | 0.452 | 0.801 | 0.799 | 0.698 | 0.779 | 0.8 | 0.268 | 0.234 | 0.234 | 0.25 | 0.293 | 0.424 | 0.654 | 0.87 | 0.317 | 0.87
LCLC-97TM1 | 0.192 | 0.208 |  | 0.163 | 0.217 | 0.426 | 0.409 |  | 0.362 | 0.461 | 0.24 | 0.219 |  | 0.245 | 0.29 | 0.472 | 0.32 | 0.364 | 0.377 | 0.278
NCI-H727 | 0.467 | 0.38 | 0.409 | 0.427 | 0.44 | 0.564 | 0.534 |  | 0.398 | 0.478 | 0.851 | 0.891 | 0.446 | 0.898 | 0.818 | 0.511 | 0.354 | 0.231 | 0.226 | 0.391
NCI-H1355 | 0.422 | 0.462 | 0.422 | 0.438 | 0.43 | 0.488 | 0.486 | 0.433 | 0.465 | 0.462 | 0.336 | 0.383 | 0.345 | 0.338 | 0.388 | 1.01 | 0.863 | 0.915 | 0.78 | 0.944
HOP-62 | 0.431 | 0.394 | 0.362 | 0.401 | 0.408 | 0.663 | 0.619 | 0.777 | 0.64 | 0.676 | 0.22 | 0.211 | 0.215 | 0.227 | 0.192 | 1.08 | 0.942 | 0.944 | 0.962 | 1.05
NCI-H2085 | 0.518 | 0.61 | 0.581 | 0.554 | 0.761 | 0.824 | 0.717 | 0.472 | 0.735 | 0.728 | 0.595 | 0.551 | 0.577 | 0.625 | 0.588 | 1.16 | 1.01 | 0.815 | 0.685 | 1.04
